Measured values published in patent US12090147B2, “Combination therapy with 2-(4-chlorophenyl)-N-((2-(2,6-dioxopiperidin-3-yl)-1-oxoisoindolin-5-yl)methyl)-2,2-difluoroacetamide” (Celgene Corporation, priority 2019, dated 2024).

Key:
MV4-11 [1] = assay: Cytokine induction, electrochemiluminescence assay of culture supernatant; assay type: cell-based, human; settings: compounds at 1 μM, 72 hours
[2] = test system: eight AML cell lines and normal PBMC; assay: IL-1 family cytokine induction across the cell panel; assay type: cell-based, human
Procedure: (§1) For cytokine assays on AML cell lines, cells were seeded at 1 million per mL, 3 mL per well of 6-well plates and allowed set overnight. The next day, cells were treated with 3 μL 1000× working stock of compounds of interest.
(§2) IL-1α (Meso Scale Disgnostics, Cat No. K151RBD), IL-1β (Meso Scale Disgnostics, Cat No. K151QPD), IL-1RA (Meso Scale Disgnostics, Cat No. K151WTD), IL-18 (Meso Scale Disgnostics, Cat No. K151VJK), TNFa (Meso Scale Disgnostics, Cat No. K151QWD), VEGF Meso Scale Disgnostics, Cat No. K151RHD) levels were measured by (Meso Scale Disgnostics assay kits following manufacturer's instructions. Measurements were made on a MESO™ SECTOR S 600 plate reader (Meso Scale Disgnostics).
(§3) The level of intracellular pro IL-1β and released IL-1β in eight AML cell lines and normal PBMC treated with a titration of Compound 1 over a 48 hour period was assessed. (see FIGS. 1A-1C, Table 2). Supernatant IL-1βb level was induced over 5 fold in 6 out of 8 AML cell lines and normal PBMC upon Compound 1 treatment compared to DMSO (FIGS. 1A, 1B, and 1C, Table 2).
The maturation of IL-1β can be mediated through classical caspase-1 inflammasome pathway, or a caspase-8 dependent non-canonical inflammasome signaling (Antonopoulos et al. J Biol Chem. 2015, 290(33):20167-84; Chauhan et al. Cell Rep. 2018, 25(9):2354-2368; and Schneider et al. Cell Rep. 2017, 21(13):3846-3859). To understand if classical caspase-1 mediated inflammasome pathway was activated by Compound 1, the levels of an inflammasome marker, IL-18, were tested in response to Compound 1 (FIG. 1B, Table 1), using a known inflammasome stimulant lipopolysaccharide (LPS) as positive control.

NOMO-1 [3] = assay: Cell viability (CELL TITER-GLO), Compound 1 IC50; assay type: cell-based; settings: Homo sapiens; NOMO-1 (macrophage, FAB M5a)
Procedure: (§4) For CELL TITER-GLO® (CTG; Promega) and Incucyte assays, cells were seeded at 0.1 million per mL, 50 μL per well of Corning black 384-well plate and allowed set overnight. The next day, test compounds were dispensed using a Tecan D300e digital dispenser according to manufacturer's instruction.
(§5) Human AML cell lines, HL-60 (CCL-240), KG-1 (CCL-246), ML-2 (ACC-15), MOLM-13 (ACC-554), MV-4-11 (CRL-9591), NOMO-1 (ACC-542), TF-1 (CRL-2003), THP-1 (TIB-202), and U937 (CRL-1593) were obtained from American Type Culture Collection (ATCC; Manassas, VA) or Deutsche Sammlung von Mikroorganismen and Zellkulturen (DSMZ, Germany) cell banks. Acute myeloid leukemia cell lines were maintained in RPMI-1640 (ATCC Cat No. 30-2001) containing 20% fetal bovine serum (FBS) (Corning Cat No. 35-010-CV) and maintained in humidified incubators at 5% carbon dioxide.
(§6) AML cell lines and primary AML were treated in duplicate or triplicates with DMSO or test compounds in 384-well plates for 3 days. Cell viability was determined by CELL TITER-GLO® (CTG; Promega) assay kit according to manufacturer's instructions. Apoptosis was monitored using Caspase 3/7 Green reagent (Essen Biosciences Cat No. 4440). Caspase-3/7 activation levels were quantified using the IncuCyte™ ZOOM basic analyzer.
(§7) Cell proliferation (CTG) and caspase 3/7 activation (IncuCyte) were analyzed using GraphPad Prism. Electrochemiluminescence data was analyzed using MSD Discovery Workbench platform.

TF-1 [4] = assay: Cell viability (CELL TITER-GLO), Compound 1 IC50; assay type: cell-based; settings: Homo sapiens; TF-1 (erythroblast, FAB M6)
Procedure: as §4, §5, §6, §7

MV4-11 [5] = assay: Cell viability (CELL TITER-GLO), Compound 1 IC50; assay type: cell-based; settings: Homo sapiens; MV4-11 (acute myeloid leukemia, FAB M5)
Procedure: as §4, §5, §6, §7

KG-1 [6] = assay: Cell viability (CELL TITER-GLO), Compound 1 IC50; assay type: cell-based; settings: Homo sapiens; KG-1 (myeloblast, FAB M0)
Procedure: as §4, §5, §6, §7

MOLM-13 [7] = assay: Cell viability (CELL TITER-GLO), Compound 1 IC50; assay type: cell-based; settings: Homo sapiens; MOLM-13 (monocytic, FAB M5a)
Procedure: as §4, §5, §6, §7

NOMO-1 [8] = assay: Cytokine induction, electrochemiluminescence assay of culture supernatant; assay type: cell-based, human
Procedure: as §1, §5, §2, §7, §3

TF-1 [9] = assay: as above; assay type: cell-based, human
Procedure: as §1, §5, §2, §7, §3

U937 = assay: as above; assay type: cell-based, human
Procedure: as §1, §5, §2, §7, §3

MV4-11 [10] = assay: as above; assay type: cell-based, human; settings: MV4-11
Procedure: as §1, §5, §2, §7, §3

ML-2 = assay: as above; assay type: cell-based, human; settings: ML-2
Procedure: as §1, §5, §2, §7, §3

THP-1 = assay: as above; assay type: cell-based, human
Procedure: as §1, §5, §2, §7, §3

KG-1 [11] = assay: as above; assay type: cell-based, human
Procedure: as §1, §5, §2, §7, §3

MOLM-13 [12] = assay: as above; assay type: cell-based, human; settings: MOLM-13
Procedure: as §1, §5, §2, §7, §3

[13] = test system: MOLM13 cell pair expressing wildtype GSPT1 or GSPT1 G575N; assay: Isogenic cell pair, endogenous GSPT1 vs non-degradable GSPT1 G575N; assay type: cell-based, human; settings: MOLM13 overexpressing GSPT1 G575N
From the text: To further confirm if IL-1β induction is an on-target effect of GSPT1 degradation, intracellular pro-IL-1β and secreted IL-1βb levels in response to Compound 1 treatment were compared in an isogenic MOLM13 cell pair either expressing endogenous wildtype GSPT1 or overexpressing a non-degradable form of GSPT1 G575N.

physchem = settings: aqueous buffer
Hygroscopicity = assay type: physicochemical
[14] = most cell lines tested (FIG. 1B: ML-2), LPS as positive control

With `O=C1CCC(N2Cc3cc(CNC(=O)C(F)(F)c4ccc(Cl)cc4)ccc3C2=O)C(=O)N1` (stereo not drawn) [Compound 1, 2-(4-chlorophenyl)-N-((2-(2,6-dioxopiperidin-3-yl)-1-oxoisoindolin-5-yl)methyl)-2,2-difluoroacetamide] the “Secreted IL-1β levels, panel of mechanistic compounds” value (MV4-11 [1]) was “produced markedly more secreted IL-1β compared to all other compounds tested”, the “Supernatant IL-1β level induction compared to DMSO” value ([2]; in 6 out of 8 AML cell lines and normal PBMC, titration of Compound 1 over a 48 hour period) was “over 5 fold” and the “IL-1α, IL-1β and IL-1RA induction” value [2, 14] was “induced IL-1α, IL-1β and IL-1RA post-apoptosis”. For the same compound, the “IL-18 levels (inflammasome marker)” value [2, 14] was “without significantly increased the levels of IL-18”, the IC50 (NOMO-1 [3]) was 57.8 nM and the IC50 (TF-1 [4]) was 105 nM. The IC50 (MV4-11 [5]) was 17.3 nM, the IC50 (KG-1 [6]) was 8.9 nM and the IC50 (MOLM-13 [7]) was 76.2 nM. It also gave an IL-1β induction (NOMO-1 [8]) of 1.34, an IL-18 induction (NOMO-1 [8]) of 0.24 and an IL-1β induction (TF-1 [9]) of 1.41. For the same compound, the IL-18 induction (TF-1 [9]) was 0.64, the IL-1β induction (U937) was 1.28 and the IL-18 induction (U937) was 0.41. The IL-1β induction (MV4-11 [10]) was 16.46, the IL-18 induction (MV4-11 [10]) was 0.00 and the IL-1β induction (ML-2) was 3.48. The IL-18 induction (ML-2) was 0.00, the “Intracellular pro- and secreted IL-1β induction, time of onset” value (ML-2) was “not observed until 48 hours post-treatment” and the “Secreted IL-1β in cell culture supernatant” value (ML-2; 24, 48 and 72 hours, doses conferring similar caspase3/7 activation and viability loss) was “conferred induction”. It also gave an IL-1β induction (THP-1) of 12.13, an IL-18 induction (THP-1) of 2.46 and an IL-1β induction (KG-1 [11]) of 27.17. The IL-18 induction (KG-1 [11]) was 0.38, the IL-1β induction (MOLM-13 [12]) was 0.00 and the “Compound 1 mediated GSPT1 degradation, caspase 3 activation and viability loss” value [13] was “complete resistance”. The “Pro-IL-1β, intracellular and supernatant IL-1β induction” value [13] was “completely blocked”, the solubility (physchem) was no more than 1 µg/mL and the Hygroscopicity (Hygroscopicity) was “Not hygroscopic”.
